Source: ChEMBL document CHEMBL4308841, “Synthesis, in vitro antiproliferative activity, and kinase inhibitory effects of pyrazole-containing diarylureas and diarylamides” (Eur J Med Chem, 2018)
pIC50: −log10 of the molar value.

Experiments:
NCI-H522 = experiment: Growth inhibition of human NCI-H522 cells incubated for 48 hrs by sulforhodamine B assay; type: functional, cell-based; conditions: NCI-H522, 48 h
Malme-3M = experiment: Growth inhibition of human MALME-3M cells assessed as cell growth at 0.1 uM incubated for 48 hrs by sulforhodamine B assay relative to control; type: functional; conditions: read-out: Activity
SF-268 [1] = experiment: Growth inhibition of human SF268 cells assessed as cell growth at 100 uM incubated for 48 hrs by sulforhodamine B assay relative to control; type: functional; conditions: SF-268, 48 h, read-out: Activity
UACC-62 [2] = experiment: Growth inhibition of human UACC62 cells incubated for 48 hrs by sulforhodamine B assay; type: functional, cell-based; conditions: UACC-62, 48 h
IGROV-1 = experiment: Growth inhibition of human IGROV1 cells assessed as cell growth at 1 uM incubated for 48 hrs by sulforhodamine B assay relative to control; type: functional; conditions: IGROV-1, 48 h, read-out: Activity
OVCAR-5 [3] = experiment: Growth inhibition of human OVCAR5 cells incubated for 48 hrs by sulforhodamine B assay; type: functional, cell-based; conditions: OVCAR-5, 48 h
UACC-62 [4] = experiment: Growth inhibition of human UACC62 cells assessed as cell growth at 100 uM incubated for 48 hrs by sulforhodamine B assay relative to control; type: functional; conditions: UACC-62, 48 h, read-out: Activity
KM12 = experiment: Growth inhibition of human KM12 cells assessed as cell growth at 1 uM incubated for 48 hrs by sulforhodamine B assay relative to control; type: functional; conditions: KM12, 48 h, read-out: Activity
CCRF-CEM [5] = experiment: Growth inhibition of human CCRF-CEM cells assessed as cell growth at 100 uM incubated for 48 hrs by sulforhodamine B assay relative to control; type: functional; conditions: read-out: Activity
UACC-62 [6] = experiment: Growth inhibition of human UACC62 cells assessed as cell growth at 0.01 uM incubated for 48 hrs by sulforhodamine B assay relative to control; type: functional; conditions: UACC-62, 48 h, read-out: Activity
OVCAR-4 [7] = experiment: Growth inhibition of human OVCAR4 cells incubated for 48 hrs by sulforhodamine B assay; type: functional, cell-based; conditions: OVCAR-4, 48 h
OVCAR-5 [8] = experiment: Growth inhibition of human OVCAR5 cells assessed as cell growth at 100 uM incubated for 48 hrs by sulforhodamine B assay relative to control; type: functional; conditions: OVCAR-5, 48 h, read-out: Activity
SNB-19 = experiment: Growth inhibition of human SNB19 cells assessed as cell growth at 100 uM incubated for 48 hrs by sulforhodamine B assay relative to control; type: functional; conditions: SNB-19, 48 h, read-out: Activity
K562 = experiment: Growth inhibition of human K562 cells incubated for 48 hrs by sulforhodamine B assay; type: functional, cell-based; conditions: K562, 48 h
OVCAR-8 = experiment: Growth inhibition of human OVCAR8 cells assessed as cell growth at 1 uM incubated for 48 hrs by sulforhodamine B assay relative to control; type: functional; conditions: OVCAR-8, 48 h, read-out: Activity
CCRF-CEM [9] = experiment: Growth inhibition of human CCRF-CEM cells assessed as cell growth at 0.01 uM incubated for 48 hrs by sulforhodamine B assay relative to control; type: functional; conditions: read-out: Activity
SF-268 [10] = experiment: Growth inhibition of human SF268 cells incubated for 48 hrs by sulforhodamine B assay; type: functional, cell-based; conditions: SF-268, 48 h
OVCAR-4 [11] = experiment: Growth inhibition of human OVCAR4 cells assessed as cell growth at 0.1 uM incubated for 48 hrs by sulforhodamine B assay relative to control; type: functional; conditions: OVCAR-4, 48 h, read-out: Activity
U-251 [12] = experiment: Growth inhibition of human U251 cells assessed as cell growth at 0.1 uM incubated for 48 hrs by sulforhodamine B assay relative to control; type: functional; conditions: U-251, 48 h, read-out: Activity
M14 = experiment: Growth inhibition of human M14 cells assessed as cell growth at 0.01 uM incubated for 48 hrs by sulforhodamine B assay relative to control; type: functional; conditions: M14, 48 h, read-out: Activity
SK-MEL-28 = experiment: Growth inhibition of human SK-MEL-28 cells assessed as cell growth at 100 uM incubated for 48 hrs by sulforhodamine B assay relative to control; type: functional; conditions: SK-MEL-28, 48 h, read-out: Activity
SK-MEL-2 = experiment: Growth inhibition of human SK-MEL-2 cells assessed as cell growth at 0.1 uM incubated for 48 hrs by sulforhodamine B assay relative to control; type: functional; conditions: SK-MEL-2, 48 h, read-out: Activity
BT-549 = experiment: Growth inhibition of human BT549 cells assessed as cell growth at 0.01 uM incubated for 48 hrs by sulforhodamine B assay relative to control; type: functional; conditions: BT-549, 48 h, read-out: Activity
U-251 [13] = experiment: Growth inhibition of human U251 cells assessed as cell growth at 100 uM incubated for 48 hrs by sulforhodamine B assay relative to control; type: functional; conditions: U-251, 48 h, read-out: Activity
RPMI-8226 = experiment: Growth inhibition of human RPMI8226 cells assessed as cell growth at 0.1 uM incubated for 48 hrs by sulforhodamine B assay relative to control; type: functional; conditions: RPMI-8226, 48 h, read-out: Activity
COLO 205 = experiment: Growth inhibition of human COLO205 cells incubated for 48 hrs by sulforhodamine B assay; type: functional, cell-based; conditions: COLO 205, 48 h
LOX IMVI = experiment: Growth inhibition of human LOXIMVI cells assessed as cell growth at 0.1 uM incubated for 48 hrs by sulforhodamine B assay relative to control; type: functional; conditions: read-out: Activity
PC-3 = experiment: Growth inhibition of human PC3 cells assessed as cell growth at 0.01 uM incubated for 48 hrs by sulforhodamine B assay relative to control; type: functional; conditions: PC-3, 48 h, read-out: Activity
[14] = read-out: LC50 (the source's name)
[15] = read-out: pLC50 (the source's name) (converted)

Which GI50 (NCI-H522; read-out: GI50) does the source give for `COc1cc(Cl)cc(-c2nn(-c3cccc(NC(=O)Nc4ccc(Cl)c(Cl)c4)c3)cc2-c2ccncc2)c1` here?
Its GI50 is 1.29 µM.

And the CC50 (NCI-H522; [14])?
Its CC50 is greater than 100 µM.

And the TGI (NCI-H522; read-out: TGI)?
Its TGI is 44.8 µM.

What about the GI50 (NCI-H522; read-out: pGI50 (converted)) of the same compound?
The GI50 was 1.29 µM.

And the CC50 (NCI-H522; [15])?
The CC50 was greater than 100 µM.

What about the TGI (NCI-H522; read-out: pTGI (converted)) of the same compound?
Its TGI is 4.47 µM.

And the growth at 0.1 µM (Malme-3M)?
Its growth at 0.1 µM is 50%.

What about the growth at 100 µM (SF-268 [1]) of the same compound?
The growth at 100 µM was 11%.

And the pIC50 (UACC-62 [2])?
Its pIC50 is 5.62.

What about the GI50 (UACC-62 [2]; read-out: GI50) of the same compound?
The GI50 was 2.4 µM.

What about the CC50 (UACC-62 [2]; [14]) of the same compound?
The CC50 was greater than 100 µM.

What about the TGI (UACC-62 [2]; read-out: TGI) of the same compound?
Its TGI is 16.3 µM.

What about the GI50 (UACC-62 [2]; read-out: pGI50 (converted)) of the same compound?
The GI50 was 2.4 µM.

What about the CC50 (UACC-62 [2]; [15]) of the same compound?
Its CC50 is greater than 100 µM.

What about the TGI (UACC-62 [2]; read-out: pTGI (converted)) of the same compound?
The TGI was 16.2 µM.

And the growth at 1 µM (IGROV-1)?
Its growth at 1 µM is 102%.

What about the GI50 (OVCAR-5 [3]; read-out: GI50) of the same compound?
Its GI50 is 4.3 µM.

And the CC50 (OVCAR-5 [3]; [14])?
The CC50 was greater than 100 µM.

And the TGI (OVCAR-5 [3]; read-out: TGI)?
Its TGI is greater than 100 µM.

What about the GI50 (OVCAR-5 [3]; read-out: pGI50 (converted)) of the same compound?
Its GI50 is 4.37 µM.

And the CC50 (OVCAR-5 [3]; [15])?
The CC50 was greater than 100 µM.

What about the TGI (OVCAR-5 [3]; read-out: pTGI (converted)) of the same compound?
The TGI was greater than 100 µM.

What about the growth at 100 µM (UACC-62 [4]) of the same compound?
Its growth at 100 µM is -32%.

What about the growth at 1 µM (KM12) of the same compound?
Its growth at 1 µM is 72%.

And the growth at 100 µM (CCRF-CEM [5])?
The growth at 100 µM was -27%.

And the growth at 0.01 µM (UACC-62 [6])?
Its growth at 0.01 µM is 95%.

And the GI50 (OVCAR-4 [7]; read-out: GI50)?
The GI50 was 2 µM.

What about the CC50 (OVCAR-4 [7]; [14]) of the same compound?
The CC50 was greater than 100 µM.

What about the TGI (OVCAR-4 [7]; read-out: TGI) of the same compound?
Its TGI is 53.8 µM.

What about the GI50 (OVCAR-4 [7]; read-out: pGI50 (converted)) of the same compound?
Its GI50 is 2.82 µM.

What about the CC50 (OVCAR-4 [7]; [15]) of the same compound?
The CC50 was greater than 100 µM.

And the TGI (OVCAR-4 [7]; read-out: pTGI (converted))?
The TGI was 53.7 µM.

And the growth at 100 µM (OVCAR-5 [8])?
Its growth at 100 µM is 9%.

And the growth at 100 µM (SNB-19)?
Its growth at 100 µM is 10%.

What about the GI50 (K562; read-out: GI50) of the same compound?
Its GI50 is 1 µM.

What about the LC50 (K562; read-out: LC50) of the same compound?
The LC50 was greater than 100 µM.

And the TGI (K562; read-out: TGI)?
Its TGI is greater than 100 µM.

And the GI50 (K562; read-out: pGI50 (converted))?
Its GI50 is 1.95 µM.

And the LC50 (K562; read-out: pLC50 (converted))?
The LC50 was greater than 100 µM.

What about the TGI (K562; read-out: pTGI (converted)) of the same compound?
Its TGI is greater than 100 µM.

And the growth at 1 µM (OVCAR-8)?
Its growth at 1 µM is 78%.

What about the growth at 0.01 µM (CCRF-CEM [9]) of the same compound?
Its growth at 0.01 µM is 97%.

And the GI50 (SF-268 [10]; read-out: GI50)?
Its GI50 is 3.27 µM.

What about the CC50 (SF-268 [10]; [14]) of the same compound?
Its CC50 is greater than 100 µM.

What about the TGI (SF-268 [10]; read-out: TGI) of the same compound?
Its TGI is greater than 100 µM.

What about the GI50 (SF-268 [10]; read-out: pGI50 (converted)) of the same compound?
Its GI50 is 3.24 µM.

What about the CC50 (SF-268 [10]; [15]) of the same compound?
Its CC50 is greater than 100 µM.

What about the TGI (SF-268 [10]; read-out: pTGI (converted)) of the same compound?
Its TGI is greater than 100 µM.

And the growth at 0.1 µM (OVCAR-4 [11])?
Its growth at 0.1 µM is 95%.

And the growth at 0.1 µM (U-251 [12])?
The growth at 0.1 µM was 92%.

And the growth at 0.01 µM (M14)?
Its growth at 0.01 µM is 97%.

What about the growth at 100 µM (SK-MEL-28) of the same compound?
Its growth at 100 µM is -7%.

What about the growth at 0.1 µM (SK-MEL-2) of the same compound?
Its growth at 0.1 µM is 54%.

What about the growth at 0.01 µM (BT-549) of the same compound?
The growth at 0.01 µM was 96%.

What about the growth at 100 µM (U-251 [13]) of the same compound?
The growth at 100 µM was -68%.

And the growth at 0.1 µM (RPMI-8226)?
The growth at 0.1 µM was 100%.

And the GI50 (COLO 205; read-out: GI50)?
Its GI50 is 1.71 µM.

And the CC50 (COLO 205; [14])?
Its CC50 is 6.4 µM.

And the TGI (COLO 205; read-out: TGI)?
Its TGI is 33.1 µM.

What about the GI50 (COLO 205; read-out: pGI50 (converted)) of the same compound?
The GI50 was 1.7 µM.

What about the CC50 (COLO 205; [15]) of the same compound?
Its CC50 is 6.46 µM.

And the TGI (COLO 205; read-out: pTGI (converted))?
The TGI was 3.31 µM.

And the growth at 0.1 µM (LOX IMVI)?
The growth at 0.1 µM was 94%.

And the growth at 0.01 µM (PC-3)?
The growth at 0.01 µM was 96%.
